Legend:
[1] = for viscosity / mass density: 101.33 kPa, Liquid; for viscosity: Falling or rolling sphere viscometry; for mass density: Vibrating tube method
[2] = Molar enthalpy of transition or fusion; settings: Crystal; DSC

CCCCCC[n+]1cccc2ccccc21.O=S(=O)([N-]S(=O)(=O)C(F)(F)F)C(F)(F)F [1-hexylquinolinium bis(trifluoromethylsulfonyl)amide]
[1]
Settings	mass density [kg/m3]	viscosity [mPa·s]
323.15 K	1365.94	100.1
328.15 K	1361.65	77.97
333.15 K	1357.35	61.78
338.15 K	1353.06	50.09
343.15 K	1348.77	41.08
348.15 K	1344.52	34.22

Settings	Normal melting temperature [°C]
[1], Crystal, DTA	44.1

Settings	Molar enthalpy of transition or fusion [kJ/mol]
[2]	63.5
